Here are results for twelve compounds from patent publication US10597396B2, “Beta-lactamase inhibitors” (Novartis AG, priority 2016, dated 2020).

What all share (assay type): cell-based
For assay [1], the system named is E. coli (OXA-18). The assay is described as follows: microbe, parasite or virus in culture. As to conditions: for MIC: Escherichia coli. The protocol: (§1) MICs were determined by the broth microdilution method in accordance with Clinical and Laboratories Institute (CLSI) guidelines. In brief, fresh overnight bacterial cultures were suspended in sterile saline, and adjusted to a 0.5 McFarland turbidity standard. Bacterial suspensions were then diluted in cation adjusted Mueller-Hinton Broth (MHB II; BBL) to yield a final inoculum of approximately 5×10^5 colony-forming units (CFU)/mL. A master plate of antibiotics was prepared at a concentration equivalent to hundred-fold the highest desired final concentration in 100% dimethyl sulfoxide (DMSO). The master antibiotic plate was then diluted by serial twofold dilution with a multichannel pipette. The resulting dilution series of compounds were diluted 1:10 with sterile water or a solution of beta-lactamase inhibitor prepared at a concentration equivalent to eleven-fold the desired final concentration in deionized water leading to a 10% DMSO final concentration. A volume of 10 μL of the drug dilution series was transferred to 96-well assay plates. Assay plates were inoculated with 90 μL of bacterial suspensions and incubated at 35° C. for 20 hrs. The assay plates were read using a microtiter plate reader (Molecular Devices) at 600 nm as well as by visual observation with a reading mirror. The lowest concentration of the compound that prevented visible growth was recorded as the MIC.
(§2) Synergy or potentiation of beta-lactam antibiotics through inhibition of […] was assessed against an isogenic panel of E. coli strains, each expressing a unique beta-lactamase, and against clinical strains.
(§3) Construction of E. coli isogenic strains, NB27273-CDY0105 (OXA-18) and NB27273-CDY0048 (TEM-10). […] The gene encoding OXA-18 was then digested with XhoI and EcoRI and inserted into this vector, from which the gene for GIM-1 had been removed with XhoI and EcoRI.
These final vectors for expression of OXA-18 and TEM-10 were transformed into BW25113 pspB to generate strains NB27273-CDY0105 (expressing OXA-18) and NB27273-CDY0048 (expressing TEM-10).

Assay [2] has as its system E. coli ATCC 25922, K. pneumoniae ATCC 43816, P. aeruginosa ATCC 27853. The assay is described as follows: Direct antibacterial activity of BLIs, summary of Table A in words. To be noted: BLI alone; statement on Table A. The protocol:
as §1, with “A volume of 10 μL of the drug dilution series was transferred to 96-well assay plates. Assay plates were inoculated with 90 μL of bacterial suspensions and incubated at 35° C. for 20 hrs.” left out, “MIC. Performance of the assay was monitored by testing aztreonam against laboratory quality control strains in accordance with guidelines of the CLSI.” for “MIC.”

Assay [3] concerns K. pneumoniae NB29323 (CTX-M-15, OXA-48, VEB-1). The assay is described as follows: Potentiation of beta-lactam MIC in beta-lactam resistant clinical isolate. As to conditions: Klebsiella pneumoniae, read-out: Activity (MIC) of aztreonam alone. Here is the method: as §1, with “MIC. Performance of the assay was monitored by testing aztreonam against laboratory quality control strains in accordance with guidelines of the CLSI.” for “MIC.”
as §2

Assay [4] relates to E. coli (CTX-M-15). The assay is described as follows: microbe, parasite or virus in culture. As to conditions: for MIC: Escherichia coli. The protocol: as §1, §2
(§4) Strain NB27273 (BW25113 pspB::Km^r) was obtained from the Keio transposon insertion collection. The strain has the pspB gene replaced by a kanamycin resistance marker (BW25113 pspB::Km^r). This strain was cured of the transposon in pspB via FLP recombinase using published methodology. The resulting strain, BW25113 pspB, was used as a host for multicopy vectors expressing key beta-lactamases. Multicopy plasmids directing constitutive expression of beta-lactamases were established as follows: Synthetic, codon optimized genes encoding E. coli KPC-2, SHV-12 and CTX-M-15 beta-lactamases were made by DNA2.0 (Palo Alto, Calif.). Each of the synthetic fragments were designed to contain NotI and NcoI restriction sites at their termini, allowing ligation into a NotI/NcoI digested pET28a(+) derivative for protein expression. […] The codon optimized nucleotide sequences and relevant primer recognition information is shown below:
(§5) The PCR products were then digested with XhoI and EcoRI and ligated into similarly digested plasmid pAH63-pstS(BlaP). […] Therefore, expression of beta-lactamases from pAH63-pstS(BlaP) based constructs is constitutive and the signal sequence is provided to direct these proteins to the periplasm. […] These fragments were then digested with XbaI and EcoRI, and each was inserted into pBAD18-kan that had been digested with the same enzymes to generate multicopy vectors expressing KPC-2, SHV-12 and CTX-M-15, respectively. These vectors were transformed into BW25113 pspB to generate strains NB27273-CDY0033 (expressing KPC-2), NB27273-CDY0030 (expressing SHV-12), NB27273-CDY0034 (expressing CTX-M-15) and NB27273-CDY0036 (expressing AmpC). The pBAD18-kan vector also contains the TEM promoter region and signal sequence, (but lacks any intact beta-lactamase genes) and was transformed into BW25113 pspB using standard protocols to generate the control strain NB27273-CDY0026.

The subject of assay [5] is E. coli (KPC-2). The assay is described as follows: microbe, parasite or virus in culture. To be noted: for MIC: Escherichia coli. Here is the method: as §1, §2, §4, §5
In assay [6] the test system is E. coli (SHV-12). Nature of the assay: microbe, parasite or virus in culture. To be noted: for MIC: Escherichia coli. Here is the method: as §1, §2, §4, §5
For assay [7], the system named is E. coli (TEM-10). The assay is described as follows: microbe, parasite or virus in culture. As to conditions: for MIC: Escherichia coli. The protocol:
as §1, §2, §3
From this template DNA, three fragments were generated by PCR using the following primer pairs;
This fragment was then digested with XbaI and EcoRI and inserted into pBAD-kan which was also cut with the same enzymes. […]

The subject of assay [8] is E. coli (AmpC). The assay is described as follows: microbe, parasite or virus in culture. As to conditions: for MIC: Escherichia coli. Here is the method:
as §1, with “MIC. Performance of the assay was monitored by testing aztreonam against laboratory quality control strains in accordance with guidelines of the CLSI.” for “MIC.”
as §2
The gene encoding AmpC was PCR amplified from the genome of strain P. aeruginosa PAO1 (NB52019) (GenBank ID U5R279) using primer pair E252 (gccCTCGAGggcgaggccccggcggatcgc) (SEQ ID NO: 17) and E253 (tgaGAATTCtcagcgcttcagcggcacct) (SEQ ID NO: 18).
The PCR products were then digested with XhoI and EcoRI and ligated into similarly digested plasmid pAH63-pstS(BlaP). Plasmid pAH63-pstS(BlaP) is a derivative of plasmid pAH63 (J Bacteriol: 183(21): 6384-6393) made by cloning the TEM-1 (bla) promoter and signal peptide encoding region from plasmid pBAD (J Bacteriol. 1995 July 177(14):4121-30) into plasmid pAH63. This fragment was PCR amplified from pBAD using primer pair E192 (ttcaCTGCAGtgaacgttgcgaagcaacggC) (SEQ ID NO:19) and E194 (TCGAggatcctcgagagcaaaaacaggaaggcaaaatgccg) (SEQ ID NO:20), digested with PstI and BamHI and inserted into similarly digested plasmid pAH63. Therefore, expression of beta-lactamases from pAH63-pstS(BlaP) based constructs is constitutive and the signal sequence is provided to direct these proteins to the periplasm. […]

Assay [9] deals with Enterobacter cloacae NB25055 (CMY-2). The assay is described as follows: Potentiation of beta-lactam MIC in beta-lactam resistant clinical isolate. To be noted: read-out: Activity (MIC) of piperacillin alone. The protocol:
as §1, with “MIC. Performance of the assay was monitored by testing aztreonam against laboratory quality control strains in accordance with guidelines of the CLSI.” for “MIC.”
as §2

The subject of assay [10] is K. pneumoniae NB29082 (KPC-2). The description is as above. As to conditions: Klebsiella pneumoniae, read-out: Activity (MIC) of piperacillin alone. Here is the method:
as §1, with “MIC. Performance of the assay was monitored by testing aztreonam against laboratory quality control strains in accordance with guidelines of the CLSI.” for “MIC.”
as §2

For assay [11], the system named is S. aureus NB01437 (BLA+). The assay is described as above. To be noted: Staphylococcus aureus, read-out: Activity (MIC) of piperacillin alone. The protocol:
as §1, with “MIC. Performance of the assay was monitored by testing aztreonam against laboratory quality control strains in accordance with guidelines of the CLSI.” for “MIC.”
as §2

Setting [12] is: no BLI, read-out: Activity (MIC) of Beta-Lactam 5 alone.
[13] abbreviates: read-out: MIC of ceftazidime alone, no BLI.

Where two headings read alike, the source gives them in different places. Where only a bound is given, the exact number is not on record here.

On to `NC(=O)[C@@H]1CC[C@@H]2CN1C(=O)N2OS(=O)(=O)O` [Avibactam], for which the “MIC of piperacillin in combination with the BLI” value (from here on “MIC of piperacillin”) in assay [1] (BLI at 2 μg/mL) was determined as 2 µg/mL. In addition, the “Direct antibacterial activity of the BLI, in words” value in [2] is “exhibit direct antibacterial activity”.

Turning to `C[C@H]1[C@H](NC(=O)/C(=N\OC(C)(C)C(=O)O)c2csc(N)n2)C(=O)N1S(=O)(=O)O` [Aztreonam], in [3], the MIC was > 64 µg/mL.

`Nc1nc(/C(=N/OC2(C(=O)O)CC2)C(=O)N[C@@H]2C(=O)N(S(=O)(=O)O)[C@@H]2CN2CCOC2=O)cs1` [Beta-Lactam 5]: the MIC in assay [4] (setting [12]) stood at 0.125 µg/mL; in assay [5] (E. coli (KPC-2), no BLI, read-out: Activity (MIC) of Beta-Lactam 5 alone), 0.25 µg/mL; in assay [6] (setting [12]), 0.5 µg/mL; in assay [7] (setting [12]) it was 2 µg/mL; in assay [8] (setting [12]) it was 0.25 µg/mL; in [1] (setting [12]), 0.5 µg/mL.

On to `CC(C)(O/N=C(\C(=O)N[C@@H]1C(=O)N2C(C(=O)O)=C(C[n+]3ccccc3)CS[C@H]12)c1csc(N)n1)C(=O)O` [Ceftazidime], for which the MIC is 16 µg/mL in assay [4] (setting [13]); 4 µg/mL in assay [5] (read-out: MIC of ceftazidime alone); > 64 µg/mL in assay [6] (setting [13]); > 64 µg/mL in assay [7] (setting [13]); 4 µg/mL in [8] (setting [13]); > 64 µg/mL in [1] (setting [13]).

Consider `O=C1NC[C@@H]2C[C@@H]3CN(C(=O)N3OS(=O)(=O)[O-])[C@H]12.[Na+]` [Example 1, Sodium (4R,5aS,8aS)-2,8-dioxohexahydro-2H-1,4-methanopyrrolo[3,4-d][1,3]diazepin-3(4H)-yl sulfate], for which, in [1] (BLI at 2 μg/mL), the “MIC of piperacillin” value was 2 µg/mL. Moreover, the “Direct antibacterial activity of the BLI, in words” value in [2] is given as “does not exhibit much direct antibiotic activity”.

Take `CN1C[C@@H]2C[C@@H]3CN(C(=O)N3OS(=O)(=O)[O-])[C@@H]2C1=O.[Na+]` [Example 2, Sodium (4R,5aS,8aS)-7-methyl-2,8-dioxohexahydro-2H-1,4-methanopyrrolo[3,4-d][1,3]diazepin-3(4H)-yl sulfate]: in assay [1] (BLI at 2 μg/mL), the “MIC of piperacillin” value turned out to be 4 µg/mL.

In the case of `O=C1[C@@H]2[C@@H](C[C@@H]3CN2C(=O)N3OS(=O)(=O)[O-])CN1C1CC1.[Na+]` [Example 3, Sodium (4R,5aS,8aS)-7-cyclopropyl-2,8-dioxohexahydro-2H-1,4-methanopyrrolo[3,4-d][1,3]diazepin-3(4H)-yl sulfate], the “MIC of piperacillin” value in assay [1] (BLI at 2 μg/mL) turned out to be 4 µg/mL.

For `O=C1NCC[C@@H]2C[C@@H]3CN(C(=O)N3OS(=O)(=O)[O-])[C@H]12.[Na+]` [Example 7, Sodium (4R,5aR,9aS)-2,9-dioxooctahydro-1,4-methanopyrido[3,4-d][1,3]diazepin-3(2H)-yl hydrogen sulfate], the “MIC of piperacillin” value in [8] (BLI at 2 μg/mL) and in assay [1] (BLI at 2 μg/mL) was 8 µg/mL each time.

For `CCN1CCN(C(=O)N[C@@H](C(=O)N[C@@H]2C(=O)N3C2SC(C)(C)[C@@H]3C(=O)O)c2ccccc2)C(=O)C1=O` (some centres unmarked) [Piperacillin], the values for the MIC in [9], in [10] and in assay [11] were > 64 µg/mL, > 64 µg/mL and 64 µg/mL, respectively.

`O=C(NC1CCNCC1)[C@@H]1CC[C@@H]2CN1C(=O)N2OS(=O)(=O)O` [Relebactam]: the “MIC of piperacillin” value in assay [1] (BLI at 2 μg/mL) was >32 µg/mL.

Regarding `C[C@]1(Cn2ccnn2)[C@H](C(=O)O)N2C(=O)C[C@H]2S1(=O)=O` [Tazobactam], the “MIC of piperacillin” value in assay [1] (BLI at 4 μg/mL) came out at 8 µg/mL.

As for Meropenem, the “MIC of meropenem alone” value in assay [4] (no BLI) is ≤0.06 µg/mL; in assay [5] (E. coli (KPC-2), no BLI), 1 µg/mL; in assay [6] (no BLI), ≤0.06 µg/mL; in assay [7] (no BLI) it was ≤0.06 µg/mL; in assay [8] (no BLI), ≤0.06 µg/mL; in assay [1] (no BLI) it was ≤0.06 µg/mL.
